No end group written: not given here.
What was measured:
gastric pepsin = gastric pepsin (Homo sapiens, UniProt P0DJD8); test: Stability studies of DC7-2: pepsin; format: in vitro ADME
carboxypeptidases = test: Stability studies of DC7-2: carboxypeptidases; format: in vitro ADME
murine intestinal cells = murine intestinal cells (Mus musculus, UniProt O88319); test: Ca2+ flux / calcium response assay (cell signaling activity); format: cell-based
Protocol: Ca^2+ Flux Assay/Calcium Response Assay:
Elevation of intracellular calcium level was measured using the fluorescent calcium chelating dye Fluo-4 AM (ThermoFischer Scientific, Denmark). Briefly, cells were grown as a monolayer in 96-well tissue culture plates (Sarstedt, Germany) to near confluence in appropriate growth medium as described in the cell culture section.
All test compounds were dissolved in water, and then diluted in 1×HBSS containing 25 mM HEPES (pH 7.4), 1% BSA and 2% ink. […]

trypsin = trypsin (Homo sapiens, UniProt P07477); test: Stability studies of DC7-2: trypsin; format: in vitro ADME
[1] = Stability of peptides ex vivo in rodent intestine; format: in vitro ADME, mouse or rat; conditions: rodent intestine model of degradation
Protocol: 0,001 mg/ml of the indicated peptides were incubated with pieces of rodent intestine (mouse and rat intestine gave similar results) for up to 10 minutes at 37° C. Recovery of activity was tested with dose-response curves as indicated.
FIG. 9. Stability of peptides in rodent intestine. EC50 values for different peptides and different incubation times were calculated from FIG. 8 and recovered activity plotted as a function of time.
Peptides are degraded by proteases in the gastrointestinal tract. However the speed of this degradation depends on the sequence of the peptide. In order to measure stability of the […] peptide series and to compare with e.g. RRKPYIL, 10 or 50 mg (wet weight) of mouse or rat intestinal tissue (distal ileum) was equilibrated in V-bottom 24 well plates in 800 μl HBSS, 25 mM HEPES, pH 7.4 at 37° C. with shaking at 350 rpm. Identical amounts of different peptides (final concentration of 1 μg/ml) were added to the intestinal pieces and incubation continued. At various time points, 100 μl aliquots were removed and diluted into whey protein hydrolysate (final concentration of 10 mg/ml) to non-specifically compete protease activity. Peptide solutions were then diluted and tested for bioactivity (FIG. 8). Peptides incubated under same conditions but in absence of intestine served as controls (no degradation). […]

chymotrypsin = chymotrypsin (Homo sapiens, UniProt P17538); test: Stability studies of DC7-2: chymotrypsin; format: in vitro ADME
[2] = Stability of peptides in serum, remaining activity read in intestinal cells; format: in vitro ADME, Bovine; conditions: octapeptides; fraction of peptide activity left after 10 min of incubation in serum at 37° C. compared with undigested sample
Protocol: All peptides were incubated at 10^−5 M with Fetal Bovine Serum (FBS; final concentration of 66.7%) (Sigma Aldrich, Denmark) at 37° C. for 3 hours. The peptide degradation was terminated using 1 M phosphoric acid (final 0.4 M, pH˜1.2) and neutralized to pH 7.2-7.4 with NaOH before testing activity in intestinal cells. As for small intestine homogenates, a zero degradation control was included for each peptide.
DC7-2, NT, DKPYIL and NT-(8-13) (final concentration of 10^−6 M) were incubated either with FBS or with 270× diluted intestinal homogenate at 37° C. for various time points with shaking. Degradation was stopped with 1 M phosphoric acid and the samples were subsequently neutralized and immediately tested with intestinal cells as described above. Control for zero degradation was included for each peptide as above.
(§1) The 20 hexapeptides with systematic N-terminal substitutions (X-KPYIL) (Schafer-N, Denmark) and NT (8-13) was incubated at 10^−6 M in either FBS for 10 minutes or with 270× diluted intestinal homogenate for 30 minutes at 37° C. with shaking. The degradation was stopped with 1 M phosphoric acid. Peptide solutions were neutralized with NaOH (pH 7.2-7.4), diluted and immediately tested for bioactivity using murine intestinal cells. Determination of EC50 for stimulation of cells allowed calculation of recovered peptide.

[3] = Stability of peptides in intestine homogenate, remaining activity read in intestinal cells; format: in vitro ADME, mice; conditions: octapeptides; % activity left after 30 min incubation in intestine homogenate at 37° C.
Protocol: Small intestines from 20 Swiss-Webster males were homogenized in 350 ml Dulbecco's phosphate-buffered saline (PBS) (pH 7.4) (ThermoFischer Scientific, Denmark) with a IKA® basic 18 Ultra-Turrax tissue homogenizer set a speed 5 followed by filtration using 100 μm nylon mesh filter. Protein concentration was 6 mg/ml using the bicinconinic acid assay (ThermoFischer Scientific, Denmark) and bovine serum albumin as standard. The intestine homogenate was diluted 10 times in HBSS containing 25 mM HEPES (pH 7.4), and further diluted 30×, 90×, 270×, 810× or 2430× before incubation with peptides. All solutions were prewarmed to 37° C. before mixing with peptide solutions.
Peptides were incubated at 10^−5 M with dilutions of small intestine homogenate at 37° C. for 90 minutes with shaking. Reactions were stopped by addition of 1 M phosphoric acid (final 0.4 M, pH˜1.2). Each peptide incubation mix was then neutralized with NaOH to pH 7.2-7.4 and immediately tested for activity in intestinal cells. Control for zero degradation, i.e. addition of 1 M phosphoric acid prior to addition of intestine homogenate, was included for each peptide. […]
as §1

carboxypeptidase = test: Carboxypeptidase activity in pancreatin (Hippuryl-L-phenylalanine); format: biochemical, porcine; conditions: 0.1 mg/ml pancreatin (FIG. 23D)
From the text: FIG. 23. Enzymes in intestine homogenate and pancreatin.

Chain of gastric pepsin (P0DJD8 63-388): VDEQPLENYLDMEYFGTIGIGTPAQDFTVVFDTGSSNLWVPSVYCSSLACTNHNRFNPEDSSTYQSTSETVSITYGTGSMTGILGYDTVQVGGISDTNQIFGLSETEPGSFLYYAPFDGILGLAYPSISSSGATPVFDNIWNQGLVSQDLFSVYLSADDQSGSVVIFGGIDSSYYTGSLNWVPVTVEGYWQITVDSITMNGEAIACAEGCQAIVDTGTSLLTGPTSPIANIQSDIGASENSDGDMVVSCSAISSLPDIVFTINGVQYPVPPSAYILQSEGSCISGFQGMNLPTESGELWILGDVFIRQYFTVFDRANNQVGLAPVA
Chain of murine intestinal cells (O88319 whole entry): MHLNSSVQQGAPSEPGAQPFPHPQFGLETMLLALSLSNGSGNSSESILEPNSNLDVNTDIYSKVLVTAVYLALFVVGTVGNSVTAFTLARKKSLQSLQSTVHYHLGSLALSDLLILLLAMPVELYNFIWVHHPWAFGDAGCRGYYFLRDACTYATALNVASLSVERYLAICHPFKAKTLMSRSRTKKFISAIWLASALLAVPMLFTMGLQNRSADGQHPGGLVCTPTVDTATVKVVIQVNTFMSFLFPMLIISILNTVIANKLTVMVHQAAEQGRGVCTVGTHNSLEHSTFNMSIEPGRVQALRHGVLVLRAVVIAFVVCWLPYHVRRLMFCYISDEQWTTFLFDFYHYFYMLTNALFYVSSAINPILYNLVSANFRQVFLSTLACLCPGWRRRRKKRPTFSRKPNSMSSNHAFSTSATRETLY
Chain of chymotrypsin (P17538 19-263): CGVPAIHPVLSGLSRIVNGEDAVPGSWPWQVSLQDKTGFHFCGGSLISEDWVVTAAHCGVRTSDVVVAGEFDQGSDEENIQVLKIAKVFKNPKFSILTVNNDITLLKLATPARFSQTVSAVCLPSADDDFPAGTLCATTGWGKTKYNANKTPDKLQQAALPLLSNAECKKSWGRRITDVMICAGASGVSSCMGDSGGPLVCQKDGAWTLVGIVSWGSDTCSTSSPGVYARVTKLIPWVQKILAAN

Substance	degradation by gastric pepsin (gastric pepsin)	sensitivity to carboxypeptidases (carboxypeptidases)	EC50 (murine intestinal cells) [nM]	sensitivity to trypsin (trypsin)	stability compared with the active fragment of neurotensin [1]	sensitivity to chymotrypsin (chymotrypsin)	Stability in serum (activity remaining) [2]	Stability in intestine (activity remaining) [3] [%]	carboxypeptidase activity (carboxypeptidase)
ASDKPYIL [Peptide 36036, A SDKPYIL]	resilient	sensitive	3.51	sensitive	100-1000 times	sensitive	0.0988	6.0	
CPI: commercial carboxypeptidase inhibitor from Potato tuber (QQHADPICNKPCKTHDDCSGAWFCQACWNSARTCGPYVG)									efficiently suppressed
